Test results taken from patent US20040014946A1, “Protein interaction method and composition” (priority 2002, published 2004).

Test system: AbI Protein Tyrosine Kinase
Assay: On-chip phosphorylation inhibition screening assay (biofunction chip, MALDI MS)
Type: biochemical
Conditions: 250 nM substrate, 23° C.
Protocol: FIG. 8 illustrates a biofunction chip with enzymatic functions. The reaction components consisted of 0.4U/well of AbI at pH 7.5, 0.1 mM ATP, and 400 nM substrate. 4 μl were added per well, and the reaction was incubated at 23° C. for 90 minutes. On-chip phosphorylation in rabbit reticulocyte extract with various substrate concentrations (0, 10, 30, 100, and 300 nM) is shown in FIG. 10. Reproducibility of the spectra in the same scale and in different scales normalized to the phosphorylated peaks are shown in FIG. 13. The percent phosphorylation is determined over time for 1 Unit of substrate per well versus 0.12 Unit substrate per well.
Screening assays for ATP analogs or substrate analogs capable of inhibiting phosphorylation were also tested. […] 250 nM substrate, 5 μM ATP, 20 U/well AbI TK, and 0, 4, 8, 12, 16, and 20 μM ATTP were incubated at 23° C. for 60 minutes. […] 250 nM substrate, 5 μM ATP, 20 U/well AbI TK, and 0, 5, 10, 15 and 40 μM Genistein were incubated at 23° C. for 60 minutes. […] 250 nM substrate, 100 μM ATP, 0.4 Units/well AbI TK, and 0, 1, 2, 4, 8, and 12 μM Erbstain were incubated at 23° C. for 60 minutes.
The components of biofunction chips are useful for kinase studies, histone acetylation, DNA methylation and protease studies. […]

| inhibition of phosphorylation (100 μM ATP, 0.4 Units/well AbI TK, 0, 1, 2, 4, 8 and 12 μM Erbstain, 60 minutes (FIG. 16)) | inhibition of phosphorylation (5 μM ATP, 20 U/well AbI TK, 0, 5, 10, 15 and 40 μM Genistein, 60 minutes (FIG. 15)) | Compound |
| --- | --- | --- |
| inhibition of phosphorylation |  | O=CN/C=C/c1cc(O)ccc1O [Erbstain] |
|  | inhibition of phosphorylation | O=c1c(-c2ccc(O)cc2)coc2cc(O)cc(O)c12 [Genistein] |
